Test results published in patent publication US12514266B2, “Composition containing quercetagetin” (Chenguang Biotech Group Co., Ltd., priority 2020, dated 2026).

What was measured:
[1] = Determination of DPPH free radical scavenging ability; assay type: biochemical; settings: absolute ethanol, 30° C., 30 min, 517 nm
Procedure: (§1) Each of the composition of Examples 9-17, as well as single-component quercetagetin, 6-hydroxykaempferol, patuletin was taken, and the detection of DPPH and hydroxyl radical scavenging ability was performed. The specific test methods are as follows.
[…], 6-hydroxykaempferol, patuletin, and compositions 9-17 were used to prepare sample solutions with concentrations of 1, 2, 3, 4, 5, and 6 μg/ml in absolute ethanol. Then, DPPH was prepared into a 2×10^−4 mol/L solution with absolute ethanol, and 2 mL of blank and sample solution were accurately absorbed and mixed with 2 mL of DPPH solution, respectively, the resultants were placed in a water bath at 30° C. in the dark for 30 min, and the absorbance A (blank) and Asample (sample) were measured at the wavelength of 517 nm.

[2] = Antioxidant effect in fish oil powder (peroxide value); settings: 40° C., 28 days; for Peroxide value of fish oil powder with an addition amount of 10 ppm: 10 ppm (based on active ingredients); for Peroxide value of fish oil powder with an addition amount of 100 ppm: 100 ppm (based on active ingredients)
Procedure: After the antioxidant and fish oil powder were evenly mixed, the resultants were placed in an incubator at 40° C., and samples were taken in 28 days to measure the peroxide value.

[3] = Determination of hydroxyl radical scavenging ability (salicylic acid method); assay type: biochemical; settings: 37° C., 15 min, 510 nm
Procedure: as §1
Quercetin, 6-hydroxykaempferol, patuletin, and compositions 9-17 were used to prepare sample solutions with concentrations of 100, 150, 200, 250, 300 μg/ml in absolute ethanol. 9 mmol/L salicylic acid-ethanol solution, 9 mmol/L FeSO4 solution and 8.8 mmol/L H2O2 solution were prepared. Then, different samples were added according to the order in the following table, and placed in a water bath at 37° C. for 15 min, and the absorbance at 510 nm was measured.

[4] = Antioxidant effect in lipids: peroxide value of butter; settings: 150 ppm
Procedure: 5 parts of chicken oil and butter were taken respectively, each of which is 100 grams. Each 3 groups of chicken oil experimental groups and butter experimental groups were set up, and the composition of Example 6 was added according to the addition amount of 4, 6 and 8 ppm respectively; each 1 group of chicken oil control group and butter control group were set up, and ethoxyquin was added in an addition amount of 150 ppm; each 1 group of chicken oil blank group and butter blank group were set up, without adding any additives. The additives in each group were mixed evenly with the lipid, placed in a constant temperature incubator at 40° C., and samples were taken at 0, 3, 7, 14, 21 and 28 days to determine their peroxide value.

SMILES | DPPH (IC50 μg/ml), half clearance [1] [µg/mL] | Peroxide value of fish oil powder with an addition amount of 10 ppm [2] [mmol/kg] | Peroxide value of fish oil powder with an addition amount of 100 ppm [2] [mmol/kg] | Hydroxyl radical scavenging ability (IC50 μg/ml), half clearance [3] [µg/mL] | peroxide value of butter ([4]; Day 0, 40° C.) [mmol/kg] | peroxide value of butter ([4]; Day 3, 40° C.) [mmol/kg] | peroxide value of butter ([4]; Day 7, 40° C.) [mmol/kg] | peroxide value of butter ([4]; Day 14, 40° C.) [mmol/kg] | peroxide value of butter ([4]; Day 21, 40° C.) [mmol/kg] | peroxide value of butter ([4]; Day 28, 40° C.) [mmol/kg]
O=c1c(O)c(-c2ccc(O)cc2)oc2cc(O)c(O)c(O)c12 [6-hydroxykaempferol] | 23.62 | 142 | 121 | 500 | – | – | – | – | – | –
CCOc1ccc2c(c1)C(C)=CC(C)(C)N2 [Ethoxyquin, ethoxyquin] | – | – | – | – | 1.41 ± 0.15 | 1.44 ± 0.142 | 1.62 ± 0.104 | 1.66 ± 0.075 | 1.82 ± 0.1 | 2.02 ± 0.197
COc1c(O)cc2oc(-c3ccc(O)c(O)c3)c(O)c(=O)c2c1O [Patuletin, patuletin] | 31.98 | 120 | 109 | 595 | – | – | – | – | – | –
O=c1c(O)c(-c2ccc(O)c(O)c2)oc2cc(O)c(O)c(O)c12 [Quercetagetin, 3,3,4,5,6,7-hexahydroxyflavone] | 14.82 | 76.5 | 57.3 | 412 | – | – | – | – | – | –
